± gives the standard deviation of the averaged measurements.
Legend:
[1] = system: UT-SCC-24A; assay: relative IC50 (midpoint of the fitted curve; maximal inhibition may be below 50%); higher = less potent; details: treatment time: 3 days
Protocol: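 HNSCC cell lines (500 cells/well, 384-well) were cultured on plastic, on top of (2D) or embedded (3D) in Matrigel or human leiomyoma matrix Myogel (500 ug/mL; Myogel 3D mixed with rat collagen I). Cells were treated for 3 days with 5 ten-fold concentrations of each drug, and viability was read by CellTiter-Glo. Viability was normalised to DMSO (0% inhibition) and 100 uM benzethonium chloride (100% inhibition) controls and fitted with the FIMM DSRT pipeline to give IC50 (nM), maximal % inhibition and the drug sensitivity score (DSS). Suffixes _1/_2/_3 on drug names are replicates.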

[2] = system: UT-SCC-40; assay: maximal % inhibition of viability relative to DMSO; higher = stronger effect; details: treatment time: 3 days
Protocol: (§1)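 HNSCC cell lines (500 cells/well, 384-well) were cultured on plastic, on top of (2D) or embedded (3D) in Matrigel or human leiomyoma matrix Myogel (500 ug/mL; Myogel 3D mixed with rat collagen I). Cells were treated for 3 days with 5 ten-fold concentrations of each drug, and viability was read by CellTiter-Glo. Viability was normalised to DMSO and benzethonium chloride controls and fitted with the FIMM DSRT pipeline to give IC50 (nM), maximal % inhibition and DSS. Suffixes _1/_2/_3 are replicates. Only inhibition-mode (IC50) fits are kept.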

[3] = system: UT-SCC-42B; assay: as above; details: treatment time: 3 days
Protocol: as §1

[4] = system: UT-SCC-8; assay: as above; details: treatment time: 3 days
Protocol: as §1

[5] = system: UT-SCC-73; assay: as above; details: treatment time: 3 days
Protocol: as §1

[6] = system: UT-SCC-81; assay: as above; details: treatment time: 3 days
Protocol: as §1

[7] = system: UT-SCC-44; assay: as above; details: treatment time: 3 days
Protocol: as §1

[8] = system: UT-SCC-24B; assay: as above; details: treatment time: 3 days
Protocol: as §1

[9] = system: UT-SCC-42A; assay: as above; details: treatment time: 3 days
Protocol: as §1

[10] = system: UT-SCC-40; assay: relative IC50 (midpoint of the fitted curve; maximal inhibition may be below 50%); higher = less potent; details: culture condition: plastic 2D (no matrix); treatment time: 3 days
Method in brief: (§2)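 Three growth formats were used for HPV-negative HNSCC cell lines in 384-well plates at 500 cells/well: bare plastic, wells coated with Matrigel or Myogel (500 µg/mL), and embedding in Matrigel or Myogel plus rat collagen I. Compounds were added at five 10-fold concentrations, and after 3 days CellTiter-Glo 2.0 luminescence was recorded and normalised to vehicle (0.1% DMSO) and cell-killing control wells. IC50, maximal inhibition and drug sensitivity score came from percent-inhibition dose–response fitting in the FIMM pipeline.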

[11] = system: UT-SCC-42B; assay: as above; details: culture condition: on top of Myogel; treatment time: 3 days
Method in brief: as §2

[12] = system: UT-SCC-73; assay: as above; details: treatment time: 3 days
Method in brief: as §2

[13] = system: UT-SCC-81; assay: as above; details: treatment time: 3 days
Method in brief: as §2

[14] = system: UT-SCC-44; assay: as above; details: treatment time: 3 days
Method in brief: as §2

[15] = system: UT-SCC-24B; assay: as above; details: treatment time: 3 days
Method in brief: as §2

[16] = system: UT-SCC-28; assay: as above; details: treatment time: 3 days
Method in brief: as §2

[17] = system: UT-SCC-42A; assay: as above; details: treatment time: 3 days
Method in brief: as §2

[18] = system: UT-SCC-14; assay: as above; details: treatment time: 3 days
Method in brief: as §2

[19] = culture condition: embedded in Myogel + collagen I
[20] = culture condition: on top of Myogel
[21] = culture condition: embedded in Matrigel
[22] = culture condition: on top of Matrigel
[23] = culture condition: plastic 2D (no matrix)

Compound: CO[C@H]1C[C@@H]2CC[C@@H](C)[C@@](O)(O2)C(=O)C(=O)N2CCCC[C@H]2C(=O)O[C@H]([C@H](C)C[C@@H]2CC[C@@H](O)[C@H](OC)C2)CC(=O)[C@H](C)/C=C(\C)[C@@H](O)[C@@H](OC)C(=O)[C@H](C)C[C@H](C)/C=C/C=C/C=C/1C [Sirolimus]
- relative IC50 [1, 19]: 1.86 nM
- relative IC50 [1, 20]: 2.01 nM
- maximal % inhibition of viability [2, 21]: 91.7 ± 5%
- maximal % inhibition of viability [2, 19]: 92 ± 2%
- maximal % inhibition of viability [2, 22]: 86.8 ± 0.91%
- maximal % inhibition of viability [2, 20]: 75.6 ± 0.97%
- maximal % inhibition of viability [2, 23]: 79.1 ± 2.9%
- maximal % inhibition of viability [3, 21]: 85 ± 3.7%
- maximal % inhibition of viability [3, 22]: 76.5 ± 1.4%
- maximal % inhibition of viability [3, 20]: 76.5 ± 1.6%
- maximal % inhibition of viability [3, 23]: 74.1 ± 2.6%
- maximal % inhibition of viability [4, 21]: 96.37 ± 0.95%
- maximal % inhibition of viability [4, 19]: 94.2 ± 1.6%
- maximal % inhibition of viability [4, 22]: 95.77 ± 0.31%
- maximal % inhibition of viability [4, 20]: 94.7 ± 0.35%
- maximal % inhibition of viability [4, 23]: 95.07 ± 0.45%
- maximal % inhibition of viability [5, 21]: 84.6 ± 1.5%
- maximal % inhibition of viability [5, 19]: 78.8 ± 4.7%
- maximal % inhibition of viability [5, 22]: 83.3 ± 2.9%
- maximal % inhibition of viability [5, 20]: 80.27 ± 0.76%
- maximal % inhibition of viability [5, 23]: 79.8 ± 1.5%
- maximal % inhibition of viability [6, 21]: 89.7 ± 3.3%
- maximal % inhibition of viability [6, 19]: 80 ± 4.9%
- maximal % inhibition of viability [6, 22]: 82.1 ± 1.4%
- maximal % inhibition of viability [6, 20]: 77.3 ± 1.9%
- maximal % inhibition of viability [6, 23]: 78.8 ± 3.2%
- maximal % inhibition of viability [7, 21]: 48.7 ± 9.5%
- maximal % inhibition of viability [7, 19]: 72.6 ± 1.9%
- maximal % inhibition of viability [7, 22]: 61 ± 2.4%
- maximal % inhibition of viability [7, 20]: 72.5 ± 1.7%
- maximal % inhibition of viability [7, 23]: 72.3 ± 3.1%
- maximal % inhibition of viability [8, 21]: 93.17 ± 0.71%
- maximal % inhibition of viability [8, 19]: 93.9 ± 1.8%
- maximal % inhibition of viability [8, 22]: 91.5 ± 0.2%
- maximal % inhibition of viability [8, 20]: 91.1 ± 2.1%
- maximal % inhibition of viability [8, 23]: 90.4 ± 1.4%
- maximal % inhibition of viability [9, 21]: 66.8 ± 8.8%
- maximal % inhibition of viability [9, 19]: 52.5 ± 2.1%
- maximal % inhibition of viability [9, 22]: 64.7 ± 1.1%
- maximal % inhibition of viability [9, 20]: 61.33 ± 0.42%
- maximal % inhibition of viability [9, 23]: 55.5 ± 0.36%
- relative IC50 [10]: > 98.9 nM
- relative IC50 [11]: > 98.9 nM
- relative IC50 [12, 19]: 26.3 nM
- relative IC50 [12, 20]: 12 nM
- relative IC50 [12, 23]: 31.8 nM
- relative IC50 [13, 19]: 2.71 nM
- relative IC50 [13, 22]: 1.95 nM
- relative IC50 [13, 20]: 1.55 nM
- relative IC50 [13, 23]: 1.4 nM
- relative IC50 [14, 19]: 2.41 nM
- relative IC50 [14, 22]: 1.79 nM
- relative IC50 [14, 23]: 1.88 nM
- relative IC50 [15, 21]: 0.965 nM
- relative IC50 [15, 20]: 2.6 nM
- relative IC50 [15, 23]: 2.95 nM
- relative IC50 [16, 21]: 2.04 nM
- relative IC50 [16, 22]: 1.16 nM
- relative IC50 [16, 23]: 1.2 nM
- relative IC50 [17, 19]: 3.22 nM
- relative IC50 [17, 22]: 2.37 nM
- relative IC50 [17, 20]: 2.33 nM
- relative IC50 [17, 23]: 2.24 nM
- relative IC50 [18, 21]: 0.687 nM
- relative IC50 [18, 19]: 0.9 nM
- relative IC50 [18, 22]: 1.24 nM
- relative IC50 [18, 20]: 1.06 nM
